Measurements published in patent publication US20030068615A1, “Polypeptides that bind HIV gp120 and related nucleic acids, antibodies, compositions, and methods of use” (priority 1999, published 2003).
Several values for one entry are separate records, joined by “and”; a condition that tells them apart may be missing. Identical values can stand only once. Like-named read-outs stand apart in the source and are kept apart here.

Target: HIV-1LAI envelope gp120 (Human immunodeficiency virus type 1 group M subtype B, UniProt P03377)
Format: binding
Details: for Counts per 20′ Average-background: CCR5 18-mer scan, radiolabeled HIV-1LAI gp120; for Binding Results For Window Length (counts bound-background), 9: 9-mer starting at the first residue of the printed sequence; for Binding Results For Window Length (counts bound-background), 12: 12-mer starting at the first residue of the printed sequence
[1] = Panel B, 15-mers and 18-mers of CD4, empty control 575
[2] = Panel C, 15-mers and 18-mers of CD4, empty control 556
[3] = STRL33 18-mer scan, background subtracted, first of two count columns
[4] = STRL33 18-mer scan, background subtracted, second of two count columns
[5] = human CD4 21-mer scan, empty control 2075
[6] = Panel D, 9-mers and 12-mers of CD4, empty control […]
[7] = Panel A, 21-mers of CD4, empty control 515 and 617
[8] = STRL33 amino terminus, background subtracted
[9] = CXCR4 18-mer scan, background subtracted, empty control 0
[10] = CXCR4 18-mer scan, empty control 412
[11] = Panel E, 9-mers and 12-mers of CD4, empty control 571

## EDSDTYICEVEDQKE
[1]
  COUNTS of radiolabeled gp120 retained: 815 counts

## EKLTGSGELWWQAER
[2]
  COUNTS of radiolabeled gp120 retained: 683 counts

## GVSNQWKSSEDNSKTFSA [STRL33 segment 313-330]
[3]
  radioactive counts recorded in twenty minutes: 208.5 counts
[4]
  radioactive counts recorded in twenty minutes: 306.5 counts

## AISDLFFLLTVPFWAHYA [CCR5 segment 73-90]
Background subtracted
  Counts per 20′ Average-background: 41 counts per 20′

## GELWWQAERASSSKSWITFDL [human CD4 236-256]
[5]
  number of radioactive decays (counts) counted: 2730 counts

## APYNIVLLLNTFQEFFGL [CCR5 segment 249-]
Background subtracted
  Counts per 20′ Average-background: 1962 counts per 20′

## LLQGQSLTLTLE
[6]
  COUNTS of radiolabeled gp120 retained: 1320 counts

## FPLIIKNLKIEDSDTYIC
[1]
  COUNTS of radiolabeled gp120 retained: 509 counts

## QKEEVQLLVFGLTAN
[1]
  COUNTS of radiolabeled gp120 retained: 3770 counts

## AVRLIFTIMTVYFLFWAP [CCR5 segment 233-]
Background subtracted
  Counts per 20′ Average-background: 62 counts per 20′

## EQVEFSFPLAFTVEKLTGSGE
[7]
  COUNTS of radiolabeled gp120 retained: 765 counts

## KNFWKLVKDIGCLPYLGV [STRL33 segment 297-314]
[3]
  radioactive counts recorded in twenty minutes: 143.5 counts
[4]
  radioactive counts recorded in twenty minutes: 82.5 counts

## QEEHQAFLQFSK
[8]
  Binding Results For Window Length (counts bound-background), 9: 1109 counts
  Binding Results For Window Length (counts bound-background), 12: 5672 counts

## EKKTCQCPHRFQKTCSPI
[5]
  number of radioactive decays (counts) counted: 2006 counts

## LTANSDTHLLQGQSLTLT
[1]
  COUNTS of radiolabeled gp120 retained: 528 counts

## EDYGFSSFNDSSQEEHQA
[8]
  Binding Results For Window Length (counts bound-background), 9: 953 counts
  Binding Results For Window Length (counts bound-background), 12: 817 counts
STRL33 amino terminus, 15-mer starting at the first residue of the printed sequence, background subtracted
  Binding Results For Window Length (counts bound-background), 15: 1152 counts
STRL33 amino terminus, 18-mer starting at the first residue of the printed sequence, background subtracted
  Binding Results For Window Length (counts bound-background), 18: 548 counts

## KASSIVYKKEGEQVEFSF
[2]
  COUNTS of radiolabeled gp120 retained: 536 counts

## KRGGHSSVSTESESSSFH [CXCR4 segment 333-350]
[9]
  radioactive counts recorded in twenty minutes: 167 counts
[10]
  radioactive counts recorded in twenty minutes: 579 counts

## QKASSIVYKKEGEQVEFSFPL
[7]
  COUNTS of radiolabeled gp120 retained: 24959 counts

## LPTIYSIIFLTGIVGNGL [CXCR4 segment 41-58]
[9]
  radioactive counts recorded in twenty minutes: 118 counts
[10]
  radioactive counts recorded in twenty minutes: 530 counts

## SFPLAFTVEKLTGSG
[2]
  COUNTS of radiolabeled gp120 retained: 565 counts

## LAFQKASSIVYKKEGEQVEFS
[7]
  COUNTS of radiolabeled gp120 retained: 1410 counts

## MLILTCITVDRFIVVVKA
[3]
  radioactive counts recorded in twenty minutes: 298.5 counts
[4]
  radioactive counts recorded in twenty minutes: 228.5 counts

## YGNVFNLDKLICGYHDEA
[3]
  radioactive counts recorded in twenty minutes: −41.5 counts
[4]
  radioactive counts recorded in twenty minutes: −20.5 counts

## HLTLPQALPQYAGSGNLTLAL [human CD4 281-301]
[5]
  number of radioactive decays (counts) counted: 2394 counts

## VSVKRVTQDPKLQMGKKLPLH
  number of radioactive decays (counts) counted: 1848 counts

## DQKEEVQLLVFGLTANSD
[1]
  COUNTS of radiolabeled gp120 retained: 3317 counts

## SFHYTIMVTEAIAYLRAC [STRL33 segment 265-282]
[3]
  radioactive counts recorded in twenty minutes: 761.5 counts
[4]
  radioactive counts recorded in twenty minutes: 1033.5 counts

## QKEEVQLLVFGL
[6]
  COUNTS of radiolabeled gp120 retained: 1785 counts

## LPYLGVSHQWKSSEDNSK
[3]
  radioactive counts recorded in twenty minutes: 111.5 counts
[4]
  radioactive counts recorded in twenty minutes: 122.5 counts

## THLLQGQSLTLTLAS
Panel F, sequential alanine replacements of CD4 polypeptides, duplicate series, empty control 569
  COUNTS of radiolabeled gp120 retained: 2596 counts and 2193 counts

## KKEGEQVEFSFPLAFTVEKLT
[7]
  COUNTS of radiolabeled gp120 retained: 1847 counts

## ILAFFACWLPYYIGISID [CXCR4 segment 245-262]
[9]
  radioactive counts recorded in twenty minutes: 184 counts
[10]
  radioactive counts recorded in twenty minutes: 596 counts

## LAFQKASSIVYKKEGEQV
[2]
  COUNTS of radiolabeled gp120 retained: 665 counts

## AVFALKARTVTFGVVTSV
Background subtracted
  Counts per 20′ Average-background: 63 counts per 20′

## VVFQFQHIMVGLILPGIV
[9]
  radioactive counts recorded in twenty minutes: 589 counts
[10]
  radioactive counts recorded in twenty minutes: 1001 counts

## FLPLLTMIVCYSVIIKTL
[3]
  radioactive counts recorded in twenty minutes: 1270.5 counts
[4]
  radioactive counts recorded in twenty minutes: 1195.5 counts

## SDTHLLQGQSLT
[6]
  COUNTS of radiolabeled gp120 retained: 540 counts

## MEGISIYTSANYTEEMGS
CXCR4 (1-18) alanine variants, mean of two syntheses and binding experiments ± average deviation, wild-type = 100%
  Relative % of Control: 71 ± 8%

## IEDSDTYICEVEDQKEEV
[1]
  COUNTS of radiolabeled gp120 retained: 1230 counts

## ASSIVYKKEGEQVEFSFP
[2]
  COUNTS of radiolabeled gp120 retained: 701 counts

## TDIYLLNLAISDLFFLLT [CCR5 segment 65-82]
Background subtracted
  Counts per 20′ Average-background: 38 counts per 20′

## QGQSLTLTL
[6]
  COUNTS of radiolabeled gp120 retained: 594 counts

## IDIVVLAFQ
[11]
  COUNTS of radiolabeled gp120 retained: 691 counts

## DSSQEEHQAFLQFSKVFL [STRL33 segment 17-34]
[3]
  radioactive counts recorded in twenty minutes: 869.5 counts
[4]
  radioactive counts recorded in twenty minutes: 2152.5 counts

## IVVLAFQKASSI
[11]
  COUNTS of radiolabeled gp120 retained: 548 counts

## KNLKIEDSDTYICEV
[1]
  COUNTS of radiolabeled gp120 retained: 562 counts
